Reference: patent publication EP3201178B1 (University of Hertfordshire Higher Education Corporation, priority 2014, dated 2016)

Columns and labels:
SH-SY5Y cells = settings: Tovilovic et al., 2012; cited from earlier work
dopamine D2 receptors = dopamine D2 receptors (Homo sapiens, UniProt P14416); experiment: binding affinity for the D2 DA receptor; settings: for affinity for dopamine D2 receptors: result in words
[1] = test system: rat primary ventral mesencephalic neurones; experiment: MTT viability assay, lactacystin cytotoxicity on primary ventral mesencephalic neurones; type: cell-based; settings: lactacystin 5µM, rat ventral mesencephalic cells in culture
Text: (§1) • Figure 1 illustrates Scheme 1, the synthetic route and chemical structures N-{4-[2-(4-aryl-piperazin-1-yl)-ethyl]-phenyl}-arylsulphonamides, N-{3-[2-(4-aryl-piperazin-1-yl)-ethyl]-phenyl}-arylsulphonamides and N-{2-[2-(4-aryl-piperazin-1-yl)-ethyl]-phenyl}-arylsulphonamides; • Figure 2 illustrates Scheme 2 the synthetic route and chemical structures of the N-{4-[2-(4-aryl-piperazin-1-yl)-methyl]-phenyl}-arylsulphonamides, N-{3-[2-(4-aryl-piperazin-1-yl)-methyl]-phenyl}-arylsulphonamides and N-{2-[2-(4-aryl-piperazin-1-yl)-methyl]-phenyl}-arylsulphonamides; • Figure 3 illustrates Table 1 illustrating the chemical structure and binding affinity of the some new arylpiperazine-sulphonamides for the D2 DA and 5-HT1A receptors; • Figure 4 illustrates the effect of compounds 1 and 2 on motor clinical scores; • Figure 5 illustrates the viability of rat ventral mesencephalic cells in culture following administration of proteasomal inhibitor lactacystin (5µM) using MTT assay. Compound 4h (4207) and 4f (4295) are protective against the effect of lactacystin in this model; and • Figure 6 illustrates the viability of ventral mesencephalic neurones using calcein AM assay.

[2] = test system: ventral mesencephalic neurones; experiment: calcein AM fluorescence viability assay against lactacystin; type: cell-based, rat; settings: 5 µM lactacystin; for protection against lactacystin in calcein AM fluorescence assay: compound concentrations 0.1 to 1 µM; for neuroprotection against lactacystin in calcein AM fluorescence assay at higher concentrations: compound concentrations 10 to 100 µM; for viability of ventral mesencephalic neurones, calcein AM assay (Figure 6 legend): low to medium concentrations of compound
Text: as §1

5-HT1a receptors = biological target: T1, 5-HT1a receptors (Homo sapiens, UniProt P08908); experiment: binding affinity for the 5-HT1A receptor
T1 sequence (P08908 1-422): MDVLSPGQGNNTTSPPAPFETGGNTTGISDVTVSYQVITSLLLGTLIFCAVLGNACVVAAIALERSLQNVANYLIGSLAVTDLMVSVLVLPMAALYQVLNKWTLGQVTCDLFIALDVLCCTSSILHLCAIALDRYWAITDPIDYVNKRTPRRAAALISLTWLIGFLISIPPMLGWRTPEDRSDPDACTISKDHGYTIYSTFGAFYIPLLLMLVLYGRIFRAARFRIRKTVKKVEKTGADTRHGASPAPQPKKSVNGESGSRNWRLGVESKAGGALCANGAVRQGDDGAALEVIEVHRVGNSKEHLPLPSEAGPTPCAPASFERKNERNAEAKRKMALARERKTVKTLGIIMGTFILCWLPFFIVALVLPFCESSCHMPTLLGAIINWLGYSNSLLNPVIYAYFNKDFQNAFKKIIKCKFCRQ

Chain of dopamine D2 receptors (P14416 whole entry): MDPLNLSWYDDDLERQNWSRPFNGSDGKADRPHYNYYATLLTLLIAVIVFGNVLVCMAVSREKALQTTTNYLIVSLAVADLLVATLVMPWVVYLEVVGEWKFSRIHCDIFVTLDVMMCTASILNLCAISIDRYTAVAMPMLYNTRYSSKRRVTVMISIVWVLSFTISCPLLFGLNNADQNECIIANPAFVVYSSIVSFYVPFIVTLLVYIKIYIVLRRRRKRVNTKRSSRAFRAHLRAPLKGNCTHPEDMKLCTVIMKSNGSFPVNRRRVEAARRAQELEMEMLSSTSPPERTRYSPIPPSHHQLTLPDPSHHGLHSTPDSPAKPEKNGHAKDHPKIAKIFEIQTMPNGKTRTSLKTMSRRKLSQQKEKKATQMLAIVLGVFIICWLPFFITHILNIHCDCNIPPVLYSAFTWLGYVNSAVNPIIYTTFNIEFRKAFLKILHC

Row | affinity for dopamine D2 receptors (dopamine D2 receptors) | Structure (SMILES) | preventing mitochondrial damage and apoptosis induced by nitric oxide (NO) (SH-SY5Y cells) | protection of dopaminergic neurons against lactacystin (cell viability, MTT assay) [1] | protection against lactacystin in calcein AM fluorescence assay [2] | neuroprotection against lactacystin in calcein AM fluorescence assay at higher concentrations [2] | viability of ventral mesencephalic neurones, calcein AM assay (Figure 6 legend) [2] | protection of dopaminergic neurons against lactacystin (cell viability, MTT assay) ([1]; hydrochloride) | other results
1 | moderate affinity | O=C(Nc1ccc(CCN2CCN(c3ccccc3)CC2)cc1)c1ccccn1 [Compound 1, N-{4-[2-(4-phenyl-piperazin-1-yl)ethyl]-phenyl}-picolinamide, reference compound] | most active |  |  |  |  |  | 
2 | moderate affinity | O=C(Nc1cccc(CCN2CCN(c3ccccc3)CC2)c1)c1ccccn1 [Compound 2, N-{3-[2-(4-phenyl-piperazin-1-yl)ethyl]-phenyl}-picolinamide, reference compound] | most active |  |  |  |  |  | 
3 |  | O=S(=O)(Nc1ccc(CCN2CCN(c3ccccc3)CC2)cc1)c1ccccn1 [Compound 4f, N-{4-[2-(4-phenyl-piperazin-1-yl)-ethyl]-phenyl}-2-pyridylsulphonamide] |  | protective | afford protection | neuroprotection was reversed | reversed cell death |  | protection of dopaminergic neurons against lactacystin (cell viability, MTT assay) ([1]; listed as 4295): markedly protected; Ki (dopamine D2 receptors): 4.43 nM
4 | little or no affinity | Cl.O=S(=O)(Nc1cccc(CCN2CCN(c3ccccc3)CC2)c1)c1cccnc1 [Compound 4h, N-{3-[2-(4-phenyl-piperazin-1-yl)-ethyl]-phenyl}-3-pyridylsulphonamide hydrochloride] |  |  | afford protection | neuroprotection was reversed | reversed cell death | protective | protection of dopaminergic neurons against lactacystin (cell viability, MTT assay) ([1]; listed as 4207, hydrochloride): most protection; Ki (5-HT1a receptors): 6.88 nM
5 |  | Cl.O=S(=O)(Nc1cccc(CCN2CCN(c3ccccc3)CC2)c1)c1cccnc1 [Compound 4208, N-{3-[2-(4-phenyl-piperazin-1-yl)-ethyl]-phenyl}-3-pyridylsulphonamide hydrochloride] |  |  |  |  |  | markedly protected | 
6 |  | O=S(=O)(Nc1cccc(CCN2CCN(c3ccccc3)CC2)c1)c1ccccn1 [Compound 4298] |  | markedly protected |  |  |  |  | 
